Residues, ends and D or L forms follow the SMILES beside them. *: point of attachment. Cbz = O=C(OCc1ccccc1)*; CH2F = FC*
Tests used:
HMGB1 [1] = experiment: Serum hypo- and hyper-acetylated HMGB1 by LC-MS/MS (relative values); type: in vivo, mouse; conditions: APAP 530 mg/kg, mice, post dose, 0-24 hr time course
Method: Overnight immunoprecipitations (IP) of serum K18 and HMGB1 (5 μg antibody and protein G separation) were subjected to SDS-PAGE. Protein bands were excised from Coomassie Blue-stained gels, destained by incubation with 50% acetonitrile/50 mM ammonium bicarbonate followed by vacuum drying. Gel pieces were rehydrated in 50 mM ammonium bicarbonate containing 40 ng/μL modified trypsin (K18) or GluC (HMGB1) and incubated for 16 hr at 37° C. Peptides were extracted by incubation with 2 changes of 60% acetonitrile/1% trifluoroacetic acid and the resulting supernatants were again dried. Extracts were desalted using C18 ZipTips according to the manufacturer's instructions and reconstituted in 5% acetonitrile/0.1% trifluoroacetic acid. For LC-MS/MS analysis, samples were delivered into a QSTAR Pulsar i hybrid mass spectrometer (Applied Biosystems) by automated in-line liquid chromatography (integrated LC-Packings System, 5 mm C18 nano-precolumn and 75 μm×15 cm C18 PepMap column (Dionex, Calif., USA) via a nano-electrospray source head and 10 μm inner diameter PicoTip (New Objective, USA). A gradient from 5% acetonitrile/0.05% trifluoroacetic acid (v/v) to 48% acetonitrile/0.05% trifluoroacetic acid (v/v) in 60 min was applied at a flow rate of […], MS and MS/MS spectra were acquired automatically in positive ion mode using information-dependent acquisition (Analyst, Applied Biosystems). Database searching was performed using Protein Pilot 2 (Applied Biosystems) with the latest version of the SwissProt database, with the confidence level set at 80%, and with biological modifications allowed. Quantification of murine serum full length K18 and caspase dependent K18 fragments was accomplished through construction of standard curves generated with synthetic peptide standards spiked into and could be recovered from control serum and compared to immunoassay (17). The full length K18 standard ([…]) was designed to span the caspase 3, 7, 9 cleavage site, whereas the abbreviated peptide ([…]) is only derived from K18 fragments with the caspase cleavage site cut (limit of detection; 300 fmol/ml. coefficient of variation; <10%). HMGB1 and its hyper-acetylated derivative were quantified by spectral counting of the peptide peak, since no synthetic standards were available, and are consequently presented only as relative values and compared to total levels determined by ELISA according to the manufacturer's instructions (limit of detection; 0.1 ng/ml. coefficient of variation; <10%).

DNA laddering = experiment: Hepatic DNA laddering (agarose gel); type: in vivo, mouse; parameters: key: (+) indicates positive detection of DNA laddering or processing of caspase-3 by western blot (WB)
Method: (§1) Caspase-3 western blotting was carried out as described previously (30) on mouse liver cytosol fractions prepared from snap frozen livers. DNA was isolated from snap frozen livers using the Sigma-Aldrich GeneElute kit according to the manufacturer's instructions. DNA laddering was visualised through ethidium bromide staining following separation on a 1% agarose gel. […] The number of cleaved caspase-3 positive cells (cytoplasmic staining) was evaluated semi-quantitatively (− no positive cells; + scattered positive cells; ++ moderate number of positive cells, +++ numerous positive cells).

[2] = system: Total hepatic glutathione (GSH+GSSG); experiment: Determination of hepatic glutathione levels; type: in vivo, mouse; parameters: key to GSH depletion: (+) indicates significant; (−) non-significant hepatic GSH depletion compared to control animals; conditions: for GSH depletion: hepatic, APAP 530 mg/kg i.p., CD-1 mice
Method: Total hepatic glutathione (GSH+GSSG) levels were determined as described previously (29).

caspase-3 = experiment: Caspase-3 western blotting of liver cytosol; type: in vivo, mouse; parameters: key to Caspase 3 processing (WB): (+) indicates positive detection of DNA laddering or processing of caspase-3 by western blot (WB); conditions: for Caspase 3 processing (WB): hepatic, APAP 530 mg/kg i.p., CD-1 mice
Method: as §1

HMGB-1 = system: HMGB-1
From the text: (A) Schematic overview of the location of cysteine 106 within the cytokine domain of murine HMGB-1 which is characterized by MS/MS. […] MS/MS and western figures are representative of 6 mice per group.

HMGB1 [3] = experiment: Total serum HMGB1 by ELISA; type: in vivo, mouse; conditions: for Serum Biomarker elevation Total HMGB1: APAP 530 mg/kg i.p., CD-1 mice
ALT = experiment: Serum alanine transaminase (ALT) activity; type: in vivo, mouse; conditions: for Serum Biomarker elevation ALT activity: APAP 530 mg/kg i.p., CD-1 mice
male CD-1 mice = experiment: Histological assessment of hepatotoxicity (H&E liver sections, hepatocyte loss score); conditions: APAP co-dosed with Z-VAD.fmk, 5 hr
apoptotic markers = experiment: Effect of Z-VAD.fmk on APAP-induced apoptotic markers (DNA laddering, pro-caspase 3 processing, serum caspase cleaved K18); type: in vivo, mouse; conditions: Z-VAD.fmk 10 mg/kg i.v. 15 min pre-APAP (530 mg/kg; 5 hr), compared with APAP alone
Method: as §1
Overnight immunoprecipitations (IP) of serum K18 and HMGB1 (5 μg antibody and protein G separation) were subjected to SDS-PAGE. […] Quantification of murine serum full length K18 and caspase dependent K18 fragments was accomplished through construction of standard curves generated with synthetic peptide standards spiked into and could be recovered from control serum and compared to immunoassay (17). […] HMGB1 and its hyper-acetylated derivative were quantified by spectral counting of the peptide peak, since no synthetic standards were available, and are consequently presented only as relative values and compared to total levels determined by ELISA according to the manufacturer's instructions (limit of detection; 0.1 ng/ml. coefficient of variation; <10%).

[4] = APAP 530 mg/kg, mice, 10 hr post treatment
[5] = APAP 530 mg/kg, mice, 3-24 hr time course

CC(=O)Nc1ccc(O)cc1 [APAP, Acetaminophen]
time of first significant elevation of necrosis-associated (hypo-acetylated) serum HMGB1 (HMGB1 [1]): 3 h
time of first significant increase of immune cell derived (hyper-acetylated) serum HMGB1 (HMGB1 [1]): 5 h
time of peak of immune cell derived (hyper-acetylated) serum HMGB1 (HMGB1 [1]): 15 h
time of return to control levels of immune cell derived (hyper-acetylated) serum HMGB1 (HMGB1 [1]): ≤ 24 h
DNA laddering (DNA laddering; [4]): no evidence
DNA laddering (DNA laddering; hepatic, APAP 530 mg/kg i.p., CD-1 mice, 3 hr): +
DNA laddering (DNA laddering; hepatic, APAP 530 mg/kg i.p., CD-1 mice, 5 hr): +
GSH depletion ([2]; 3 hr): +
GSH depletion ([2]; 5 hr): +
GSH depletion ([2]; 10 hr): −
GSH depletion ([2]; 15 hr): −
GSH depletion ([2]; 20 hr): −
GSH depletion ([2]; 24 hr): −
caspase 3 processing (caspase-3; [4]): no evidence
Caspase 3 processing (WB) (caspase-3; 3 hr): +
Caspase 3 processing (WB) (caspase-3; 5 hr): +
Caspase 3 processing (WB) (caspase-3; 10 hr): +
serum molecular form of HMGB-1 present (HMGB-1; fasted mice dosed with APAP (530 mg/kg; 5 h)): the only serum molecular form of HMGB-1 present was the reduced form
predominant form of HMGB-1 in sera (HMGB-1; fed mice dosed with APAP (530 mg/kg; 5 h)): oxidized, immune-tolerant form
toxicity (HMGB-1; mouse, in vivo): displaying toxicity
Serum Biomarker elevation Total HMGB1 (HMGB1 [3]; 3 hr): +
Serum Biomarker elevation Total HMGB1 (HMGB1 [3]; 5 hr): +
Serum Biomarker elevation Total HMGB1 (HMGB1 [3]; 10 hr): +
Serum Biomarker elevation Total HMGB1 (HMGB1 [3]; 15 hr): +
Serum Biomarker elevation Total HMGB1 (HMGB1 [3]; 20 hr): −
Serum Biomarker elevation Total HMGB1 (HMGB1 [3]; 24 hr): −
last time point with serum HMGB1 elevation (HMGB1 [3]; [5]): ≤ 15 h
Serum Biomarker elevation ALT activity (ALT; 3 hr): +
Serum Biomarker elevation ALT activity (ALT; 5 hr): +
Serum Biomarker elevation ALT activity (ALT; 10 hr): +
Serum Biomarker elevation ALT activity (ALT; 15 hr): +
Serum Biomarker elevation ALT activity (ALT; 20 hr): +
Serum Biomarker elevation ALT activity (ALT; 24 hr): +
increased serum ALT activity, time course (ALT; [5]): observed over the entire time course

COC(=O)C[C@H](NC(=O)[C@H](C)NC(=O)[C@@H](NC(=O)OCc1ccccc1)C(C)C)C(=O)CF [Z-VAD.fmk] (Cbz-Val-Ala-Asp(OMe)-CH2F)
effect on APAP-mediated GSH depletion ([2]; Z-VAD.fmk pre-treatment, APAP 530 mg/kg, 5 hr): no effect
molecular form of HMGB1 detected (HMGB-1; Z-VAD.fmk in APAP-treated, fed mice): only the reduced molecular form
serum ALT level compared with APAP alone (ALT; Z-VAD.fmk and APAP (530 mg/kg; 5 hr)): increased
apoptotic hepatocyte death by histology and immunohistology for cleaved caspase-3 (male CD-1 mice): no evidence
Histological scoring of centrilobular hepatocyte loss (male CD-1 mice; score 0-5, higher than APAP alone (p<0.05)): 2-3
detection of apoptotic markers in APAP dosed mice (apoptotic markers): completely inhibited

From patent publication US8748109B2, “Method for the detection of organ or tissue injury” (priority 2009, dated 2014)
